Measurements reported in paper PMC11378028 (RSC Advances, 2024).
≈ marks a conversion by molar mass, not a printed value.

Experiments:
[1] = biological target: S. aureus topoisomerase IV (Staphylococcus aureus, UniProt P0C1S7); test: topoisomerase IV relaxation plate assay; format: biochemical; settings: for remaining activity at 1 µM: read-out: RA (residual activity) S. aureus topo IV
E. coli topoisomerase IV = E. coli topoisomerase IV (Escherichia coli, UniProt P20083); test: topoisomerase IV relaxation plate assay; format: biochemical; settings: for remaining activity at 1 µM / remaining activity at 10 µM: read-out: RA (residual activity) E. coli topo IV
Chain of E. coli topoisomerase IV (P20083 whole entry): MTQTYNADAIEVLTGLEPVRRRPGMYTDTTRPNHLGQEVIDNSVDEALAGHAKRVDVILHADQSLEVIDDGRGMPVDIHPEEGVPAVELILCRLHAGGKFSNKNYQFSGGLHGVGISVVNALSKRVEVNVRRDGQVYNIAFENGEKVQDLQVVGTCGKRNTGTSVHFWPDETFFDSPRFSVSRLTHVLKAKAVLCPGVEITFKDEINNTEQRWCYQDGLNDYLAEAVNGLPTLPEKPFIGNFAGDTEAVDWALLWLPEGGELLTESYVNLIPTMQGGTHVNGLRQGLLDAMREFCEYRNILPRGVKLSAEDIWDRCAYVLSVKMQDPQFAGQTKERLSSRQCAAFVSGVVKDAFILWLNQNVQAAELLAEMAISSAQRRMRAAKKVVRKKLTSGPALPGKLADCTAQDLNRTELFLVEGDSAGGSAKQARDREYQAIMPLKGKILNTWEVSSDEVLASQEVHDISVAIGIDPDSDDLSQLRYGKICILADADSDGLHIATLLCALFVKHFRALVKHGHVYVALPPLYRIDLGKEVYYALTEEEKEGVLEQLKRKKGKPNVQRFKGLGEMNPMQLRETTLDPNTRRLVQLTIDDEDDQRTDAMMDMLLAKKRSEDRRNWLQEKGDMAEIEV
Chain of E. coli topoisomerase IV (P0AFI2 whole entry partner): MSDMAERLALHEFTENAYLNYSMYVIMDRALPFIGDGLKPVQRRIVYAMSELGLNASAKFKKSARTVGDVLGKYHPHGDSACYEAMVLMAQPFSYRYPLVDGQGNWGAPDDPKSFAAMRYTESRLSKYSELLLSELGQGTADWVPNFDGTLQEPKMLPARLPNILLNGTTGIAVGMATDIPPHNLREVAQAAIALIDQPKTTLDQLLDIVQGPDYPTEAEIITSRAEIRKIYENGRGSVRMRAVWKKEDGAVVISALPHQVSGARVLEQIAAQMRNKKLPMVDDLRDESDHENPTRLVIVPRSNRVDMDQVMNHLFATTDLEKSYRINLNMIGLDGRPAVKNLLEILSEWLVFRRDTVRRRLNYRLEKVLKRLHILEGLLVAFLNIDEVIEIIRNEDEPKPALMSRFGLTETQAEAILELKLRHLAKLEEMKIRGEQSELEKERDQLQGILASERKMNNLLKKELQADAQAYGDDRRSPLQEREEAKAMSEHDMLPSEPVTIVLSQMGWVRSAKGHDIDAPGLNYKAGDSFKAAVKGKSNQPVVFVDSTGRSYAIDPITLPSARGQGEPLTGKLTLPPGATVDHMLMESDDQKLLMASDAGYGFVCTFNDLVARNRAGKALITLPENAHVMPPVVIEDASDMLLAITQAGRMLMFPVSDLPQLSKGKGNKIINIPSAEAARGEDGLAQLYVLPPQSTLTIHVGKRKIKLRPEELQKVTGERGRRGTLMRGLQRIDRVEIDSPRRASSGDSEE

E. coli DNA gyrase = E. coli DNA gyrase (Escherichia coli, UniProt P0AES6); test: DNA gyrase supercoiling plate assay; format: biochemical; settings: IC50 E. coli gyrase, supercoiling assay
S. aureus DNA gyrase = S. aureus DNA gyrase (Staphylococcus aureus, UniProt P0A0K8); test: DNA gyrase supercoiling plate assay; format: biochemical; settings: for remaining activity at 1 µM: read-out: RA (residual activity) S. aureus gyrase
[2] = biological target: human DNA topoisomerase IIα (Homo sapiens, UniProt P11388); test: human DNA topoisomerase IIα inhibition; format: biochemical; settings: read-out: RA (residual activity) Human topo IIα
Chain of human DNA topoisomerase IIα (P11388 whole entry): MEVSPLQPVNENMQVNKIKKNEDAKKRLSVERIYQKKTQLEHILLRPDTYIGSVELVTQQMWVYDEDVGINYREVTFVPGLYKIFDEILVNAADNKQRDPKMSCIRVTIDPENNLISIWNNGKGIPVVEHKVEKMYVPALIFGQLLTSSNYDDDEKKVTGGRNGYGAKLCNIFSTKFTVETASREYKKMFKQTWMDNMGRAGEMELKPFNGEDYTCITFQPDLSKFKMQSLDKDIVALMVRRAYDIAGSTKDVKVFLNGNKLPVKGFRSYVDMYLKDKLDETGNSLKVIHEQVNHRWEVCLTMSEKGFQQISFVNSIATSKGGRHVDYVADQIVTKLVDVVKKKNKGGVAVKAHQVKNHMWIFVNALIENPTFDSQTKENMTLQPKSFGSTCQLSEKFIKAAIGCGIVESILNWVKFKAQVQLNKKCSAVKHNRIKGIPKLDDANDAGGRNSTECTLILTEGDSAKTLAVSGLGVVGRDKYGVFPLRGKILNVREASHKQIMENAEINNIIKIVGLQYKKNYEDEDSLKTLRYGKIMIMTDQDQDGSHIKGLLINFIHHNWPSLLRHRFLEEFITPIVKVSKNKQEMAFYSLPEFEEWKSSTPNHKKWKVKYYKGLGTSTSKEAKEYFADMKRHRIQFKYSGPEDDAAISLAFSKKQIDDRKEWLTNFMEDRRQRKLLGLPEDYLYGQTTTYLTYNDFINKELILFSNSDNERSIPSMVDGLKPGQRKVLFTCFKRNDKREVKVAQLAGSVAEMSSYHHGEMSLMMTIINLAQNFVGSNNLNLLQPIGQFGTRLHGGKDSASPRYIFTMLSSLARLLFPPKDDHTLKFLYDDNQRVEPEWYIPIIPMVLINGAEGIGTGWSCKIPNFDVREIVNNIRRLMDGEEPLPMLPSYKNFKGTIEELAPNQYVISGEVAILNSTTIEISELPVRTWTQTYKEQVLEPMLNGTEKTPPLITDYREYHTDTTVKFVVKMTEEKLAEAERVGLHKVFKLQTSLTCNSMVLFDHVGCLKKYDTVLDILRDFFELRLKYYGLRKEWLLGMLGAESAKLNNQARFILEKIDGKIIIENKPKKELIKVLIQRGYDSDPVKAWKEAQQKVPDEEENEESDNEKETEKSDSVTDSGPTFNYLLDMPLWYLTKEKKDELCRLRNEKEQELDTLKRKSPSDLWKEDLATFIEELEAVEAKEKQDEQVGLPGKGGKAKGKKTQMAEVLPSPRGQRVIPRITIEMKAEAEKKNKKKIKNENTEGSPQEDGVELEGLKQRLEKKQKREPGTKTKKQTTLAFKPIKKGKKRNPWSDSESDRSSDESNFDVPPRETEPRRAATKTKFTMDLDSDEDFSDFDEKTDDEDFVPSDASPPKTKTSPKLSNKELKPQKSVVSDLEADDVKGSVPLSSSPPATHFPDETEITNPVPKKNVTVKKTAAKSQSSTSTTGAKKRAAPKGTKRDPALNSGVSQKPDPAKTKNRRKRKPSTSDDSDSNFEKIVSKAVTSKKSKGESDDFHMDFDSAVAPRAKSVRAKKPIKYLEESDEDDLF

A. baumannii ATCC 17978 = test: MIC, broth microdilution; format: cell-based; settings: Acinetobacter baumannii, ATCC17978, read-out: MIC A. baumannii ATCC 17978
[3] = tested on: S. aureus ATCC 43300 (MRSA); test: MIC, broth microdilution; format: cell-based; settings: Staphylococcus aureus, ATCC43300|MRSA, read-out: MIC S. aureus ATCC 43300 (MRSA)
K. pneumoniae ATCC 10031 [4] = test: MIC, broth microdilution; format: cell-based; settings: Klebsiella pneumoniae, ATCC10031, read-out: MIC K. pneumoniae ATCC 10031
[5] = tested on: E. spp. cloacae ATCC 13047; test: MIC, broth microdilution; format: cell-based; settings: read-out: MIC E. spp. cloacae ATCC 13047
[6] = tested on: S. aureus ATCC 700699 (VISA); test: MIC, broth microdilution; format: cell-based; settings: Staphylococcus aureus, ATCC700699|VISA, read-out: MIC S. aureus ATCC 700699 (VISA)
E. faecalis ATCC 29212 = test: MIC, broth microdilution; format: cell-based; settings: Enterococcus faecalis, ATCC29212, read-out: MIC E. faecalis ATCC 29212
S. aureus ATCC 29213 [7] = test: MIC, broth microdilution; format: cell-based, Staphylococcus aureus; settings: Staphylococcus aureus, ATCC29213, read-out: MIC S. aureus ATCC 29213, broth microdilution
P. aeruginosa ATCC 27853 = test: MIC, broth microdilution; format: cell-based; settings: Pseudomonas aeruginosa, ATCC27853, read-out: MIC P. aeruginosa ATCC 27853
E. coli ATCC 25922 = test: MIC, broth microdilution; format: cell-based; settings: Escherichia coli, ATCC25922, read-out: MIC E. coli ATCC 25922
[8] = tested on: K. pneumoniae ATCC 700603; test: MIC, broth microdilution; format: cell-based; settings: Klebsiella pneumoniae, ATCC700603, read-out: MIC K. pneumoniae ATCC 700603
A. baumannii ATCC 19606 = test: MIC, broth microdilution; format: cell-based; settings: Acinetobacter baumannii, ATCC19606, read-out: MIC A. baumannii ATCC 19606
K. aerogenes ATCC 13408 = test: MIC, broth microdilution; format: cell-based; settings: Klebsiella aerogenes, ATCC13408, read-out: MIC K. aerogenes ATCC 13408
K. pneumoniae SE K13 = test: MIC against fluoroquinolone-resistant clinical isolate; format: cell-based; settings: Klebsiella pneumoniae, SEK13, read-out: MIC K. pneumoniae SE K13
MRSA clinical isolate-2 = test: as above; format: cell-based; settings: Staphylococcus aureus, read-out: MIC MRSA clinical isolate-2
K. pneumoniae SE K14 = test: as above; format: cell-based; settings: Klebsiella pneumoniae, SEK14, read-out: MIC K. pneumoniae SE K14
K. pneumoniae NCTC 13440 = test: as above; format: cell-based; settings: Klebsiella pneumoniae, NCTC13440, read-out: MIC K. pneumoniae NCTC 13440
K. pneumoniae K9–K25 = test: as above; format: cell-based; settings: Klebsiella pneumoniae, read-out: MIC K. pneumoniae K9–K25
MRSA clinical isolate-1 = test: as above; format: cell-based; settings: Staphylococcus aureus, read-out: MIC MRSA clinical isolate-1
K. pneumoniae ATCC 10031 [9] = test: spontaneous frequency of resistance; format: cell-based, Klebsiella pneumoniae
S. aureus ATCC 29213 [10] = test: spontaneous frequency of resistance; format: cell-based, Staphylococcus aureus

Chain of S. aureus topoisomerase IV (P0C1S7 whole entry): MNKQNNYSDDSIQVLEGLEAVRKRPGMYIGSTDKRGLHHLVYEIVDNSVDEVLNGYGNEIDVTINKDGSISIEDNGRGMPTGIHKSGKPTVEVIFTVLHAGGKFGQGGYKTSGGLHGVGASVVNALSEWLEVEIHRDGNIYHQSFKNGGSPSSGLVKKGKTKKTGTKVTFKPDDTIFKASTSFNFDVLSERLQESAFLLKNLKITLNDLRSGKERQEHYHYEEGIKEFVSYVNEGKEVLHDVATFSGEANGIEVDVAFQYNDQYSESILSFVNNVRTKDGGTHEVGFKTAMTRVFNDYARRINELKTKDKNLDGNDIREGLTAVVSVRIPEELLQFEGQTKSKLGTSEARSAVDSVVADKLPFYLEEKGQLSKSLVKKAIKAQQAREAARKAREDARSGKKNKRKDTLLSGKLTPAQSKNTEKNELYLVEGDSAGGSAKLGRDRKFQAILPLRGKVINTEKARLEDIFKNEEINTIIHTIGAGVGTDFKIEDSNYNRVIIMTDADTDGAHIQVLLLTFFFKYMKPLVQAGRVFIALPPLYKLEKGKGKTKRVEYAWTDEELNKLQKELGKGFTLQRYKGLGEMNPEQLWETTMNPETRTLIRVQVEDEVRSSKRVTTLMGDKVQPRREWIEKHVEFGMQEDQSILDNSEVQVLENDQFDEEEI
Chain of S. aureus topoisomerase IV (P0C1U9 whole entry partner): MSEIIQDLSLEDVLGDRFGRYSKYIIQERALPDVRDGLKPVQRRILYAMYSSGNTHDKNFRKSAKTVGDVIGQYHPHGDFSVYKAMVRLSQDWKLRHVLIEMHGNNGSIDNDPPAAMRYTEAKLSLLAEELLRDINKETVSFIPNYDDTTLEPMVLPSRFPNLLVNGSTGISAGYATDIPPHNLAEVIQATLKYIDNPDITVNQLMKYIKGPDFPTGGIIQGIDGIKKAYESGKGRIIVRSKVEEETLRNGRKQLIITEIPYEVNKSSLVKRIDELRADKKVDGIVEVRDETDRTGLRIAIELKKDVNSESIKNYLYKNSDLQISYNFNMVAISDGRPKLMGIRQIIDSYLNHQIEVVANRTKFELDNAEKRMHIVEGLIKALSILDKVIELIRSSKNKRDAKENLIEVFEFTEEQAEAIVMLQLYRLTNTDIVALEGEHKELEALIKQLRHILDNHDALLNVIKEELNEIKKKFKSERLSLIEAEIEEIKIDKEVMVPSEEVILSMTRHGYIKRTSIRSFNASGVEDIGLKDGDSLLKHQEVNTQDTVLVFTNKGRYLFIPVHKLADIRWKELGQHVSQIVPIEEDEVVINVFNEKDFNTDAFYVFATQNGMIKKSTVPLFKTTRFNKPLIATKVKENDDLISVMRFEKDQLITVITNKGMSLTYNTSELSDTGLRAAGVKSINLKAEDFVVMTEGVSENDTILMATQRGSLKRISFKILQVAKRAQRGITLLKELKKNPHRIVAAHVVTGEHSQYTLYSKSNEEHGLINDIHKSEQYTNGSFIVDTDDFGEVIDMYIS

SMILES | remaining activity at 1 µM (E. coli topoisomerase IV) [%] | IC50 (E. coli DNA gyrase) [nM] | MIC (A. baumannii ATCC 17978) [µg/mL] | MIC [3] [µg/mL] | MIC (K. pneumoniae ATCC 10031 [4]) [µg/mL] | MIC [5] [µg/mL] | MIC [6] [µg/mL] | MIC (E. faecalis ATCC 29212) [µg/mL] | MIC (S. aureus ATCC 29213 [7]) [µg/mL] | MIC (P. aeruginosa ATCC 27853) [µg/mL] | MIC (E. coli ATCC 25922) [µg/mL] | MIC [8] [µg/mL] | MIC (A. baumannii ATCC 19606) [µg/mL] | MIC (K. aerogenes ATCC 13408) [µg/mL] | other results
Cc1[nH]c(C(=O)Nc2ccc(C(=O)NCC(=O)O)cc2N2CCN(C(=O)OC(C)(C)C)CC2)c(Cl)c1Cl [Compound 8a, (3-(4-(tert-Butoxycarbonyl)piperazin-1-yl)-4-(3,4-dichloro-5-methyl-1H-pyrrole-2-carboxamido)benzoyl)glycine] | 93 | 84.1 | – | – | – | – | – | – | – | – | – | – | – | – | remaining activity at 1 µM [1]: 22%; remaining activity at 1 µM (S. aureus DNA gyrase): 37%
Cc1[nH]c(C(=O)Nc2ccc(C(=O)NCC(=O)O)cc2N2CC[C@H](N)C2)c(Cl)c1Cl [Compound 10b, (S)-1-(5-((Carboxymethyl)carbamoyl)-2-(3,4-dichloro-5-methyl-1H-pyrrole-2-carboxamido)phenyl)pyrrolidin-3-aminium chloride] | – | 19.3 | – | – | – | – | – | – | – | – | – | – | – | – | IC50 [1]: 2560 nM; IC50 (E. coli topoisomerase IV): 958 nM; remaining activity at 10 µM [2]: 82%; IC50 (S. aureus DNA gyrase): 112 nM
Cc1[nH]c(C(=O)Nc2ccc(C(=O)O)cc2N2CCN(c3ccccc3)CC2)c(Cl)c1Cl [Compound 18h, 4-(3,4-Dichloro-5-methyl-1H-pyrrole-2-carboxamido)-3-(4-phenylpiperazin-1-yl)benzoic acid] | – | – | > 64 | > 64 | > 64 | > 64 | > 64 | > 64 | > 64 | > 64 | > 64 | – | – | – | remaining activity at 10 µM (E. coli topoisomerase IV): 85%
COC(=O)c1ccc(NC(=O)c2[nH]c(C)c(Cl)c2Cl)c(N2CCNCC2)c1.Cl [Compound 19a, 4-(2-(3,4-Dichloro-5-methyl-1H-pyrrole-2-carboxamido)-5-(methoxycarbonyl)phenyl)piperazin-1-ium chloride] | 102 | 100 | – | – | – | – | – | – | > 32 | > 32 | > 32 | > 32 | 16 | > 32 | remaining activity at 1 µM [1]: 95%; remaining activity at 1 µM (S. aureus DNA gyrase): 45%
COC(=O)c1ccc(NC(=O)c2[nH]c(C)c(Cl)c2Cl)c(N2CCC[C@H](N)C2)c1.Cl [Compound 19c, (S)-1-(2-(3,4-Dichloro-5-methyl-1H-pyrrole-2-carboxamido)-5-(methoxycarbonyl)phenyl)piperidin-3-aminium chloride] | 79 | 120 | – | – | 4 | – | – | – | 8 | > 32 | > 32 | > 32 | 16 | > 32 | remaining activity at 1 µM (S. aureus DNA gyrase): 27%
Cc1[nH]c(C(=O)Nc2ccc(C(=O)O)cc2N2CCNCC2)c(Cl)c1Cl.Cl [Compound 20a, 4-(5-Carboxy-2-(3,4-dichloro-5-methyl-1H-pyrrole-2-carboxamido)phenyl)piperazin-1-ium chloride] | 106 | – | > 64 | > 64 | > 64 | > 64 | > 64 | – | > 32 | > 32 | > 32 | > 32 | > 32 | > 32 | remaining activity at 1 µM [1]: 92%; remaining activity at 40 µM [2]: 116%
Cc1[nH]c(C(=O)Nc2ccc(C(=O)O)cc2N2CCC[C@H](N)C2)c(Cl)c1Cl.Cl [Compound 20c, (S)-1-(5-Carboxy-2-(3,4-dichloro-5-methyl-1H-pyrrole-2-carboxamido)phenyl)piperidin-3-aminium chloride] | 78 | 134 | > 64 | > 64 | > 64 | > 64 | > 64 | – | > 32 | > 32 | > 32 | > 32 | > 32 | > 32 | –
Cc1[nH]c(C(=O)Nc2ccc(C(=O)O)cc2NC2CCNCC2)c(Cl)c1Cl.Cl [Compound 20d, 4-((5-Carboxy-2-(3,4-dichloro-5-methyl-1H-pyrrole-2-carboxamido)phenyl)amino)piperidin-1-ium chloride] | – | – | > 64 | > 64 | > 64 | > 64 | > 64 | > 64 | > 64 | > 64 | > 64 | – | – | – | remaining activity at 10 µM (E. coli topoisomerase IV): 89%
Cc1[nH]c(C(=O)Nc2ccc(-c3n[nH]c(=O)o3)cc2N2CCOCC2)c(Cl)c1Cl [Compound 22e, 3,4-Dichloro-5-methyl-N-(2-morpholino-4-(5-oxo-4,5-dihydro-1,3,4-oxadiazol-2-yl)phenyl)-1H-pyrrole-2-carboxamide] | – | – | > 64 | 0.25 (≈ 0.57 µM) | > 64 | > 64 | – | 0.125 (≈ 0.285 µM) | 0.25 (≈ 0.57 µM) | > 64 | > 64 | – | – | – | MIC (K. pneumoniae SE K13): > 64 µg/mL; MIC (MRSA clinical isolate-2): 0.5 µg/mL (≈ 1.14 µM); IC50 (E. coli topoisomerase IV): 1230 nM; MIC (K. pneumoniae SE K14): > 64 µg/mL; MIC (K. pneumoniae NCTC 13440): > 64 µg/mL; remaining activity at 100 µM [2]: 93%; MIC (K. pneumoniae K9–K25): > 64 µg/mL; MIC (MRSA clinical isolate-1): 0.5 µg/mL (≈ 1.14 µM)
Cc1[nH]c(C(=O)Nc2ccc(-c3n[nH]c(=O)o3)cc2N2CCNCC2)c(Cl)c1Cl.Cl [Compound 23a, 4-(2-(3,4-Dichloro-5-methyl-1H-pyrrole-2-carboxamido)-5-(5-oxo-4,5-dihydro-1,3,4-oxadiazol-2-yl)phenyl)piperazin-1-ium chloride] | – | – | > 64 | 4 | 0.25 | > 64 | – | 0.5 | 2 | > 64 | > 64 | – | – | – | MIC (K. pneumoniae SE K13): > 64 µg/mL; MIC (MRSA clinical isolate-2): 2 µg/mL; MIC (K. pneumoniae SE K14): > 64 µg/mL; MIC (K. pneumoniae NCTC 13440): > 64 µg/mL; remaining activity at 100 µM [2]: 86%; MIC (K. pneumoniae K9–K25): > 64 µg/mL; MIC (MRSA clinical isolate-1): 4 µg/mL; resistance-proneness compared to novobiocin (K. pneumoniae ATCC 10031 [9]): significantly less resistance-prone compared to novobiocin; resistance-proneness compared to novobiocin (S. aureus ATCC 29213 [10]): significantly less resistance-prone compared to novobiocin
Cc1[nH]c(C(=O)Nc2ccc(-c3n[nH]c(=O)o3)cc2NC2CCNCC2)c(Cl)c1Cl.Cl [Compound 23d, 4-((2-(3,4-Dichloro-5-methyl-1H-pyrrole-2-carboxamido)-5-(5-oxo-4,5-dihydro-1,3,4-oxadiazol-2-yl)phenyl)amino)piperidin-1-ium chloride] | – | – | > 64 | > 64 | 2 | > 64 | > 64 | > 64 | > 64 | > 64 | > 64 | – | – | – | IC50 (E. coli topoisomerase IV): 1260 nM; remaining activity at 10 µM [2]: 99%
Cc1[nH]c(C(=O)Nc2ccc(-c3n[nH]c(=O)o3)cc2OCc2ccccc2)c(Cl)c1Cl [Compound 39, N-(2-(Benzyloxy)-4-(5-oxo-4,5-dihydro-1,3,4-oxadiazol-2-yl)phenyl)-3,4-dichloro-5-methyl-1H-pyrrole-2-carboxamide] | 101 | – | > 32 | > 32 | > 32 | > 32 | > 32 | > 32 | > 32 | > 32 | > 32 | – | – | – | remaining activity at 100 µM [2]: 104%
